# Assay results from PubChem BioAssay AID2060326 (Molecular Pharmacology Branch, DTP, NCI, 2025).
# Values joined by “and” are separate entries in the source; they are usually repeats but may differ in a detail not shown here. Equal entries are not always repeated.
# Test system: MDA-MB-468 multi-cell spheroids, viability
# Test: Anticancer human tumor MDA-MB-468 cell line growth inhibition [IpAb];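 further: spheroids exposed to agents for seven days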;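 on viability, T/C: 100% = DMSO vehicle control viability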
# Conditions: for viability, T/C: stronger effect = lower value
# Description: Combinatorial screen of targeted agents with ipatasertib and abemaciclib in multi-cell type tumor spheroids
# A high-throughput screen of multi-cell type tumor spheroids was designed to identify active combinations of targeted small molecules and ipatasertib or abemaciclib. Complex spheroids include a stromal component modeled by human endothelial cells (HUVEC) and fibroblasts modeled by human mesenchymal stem cells (MSCs). The concentration ranges selected for each drug and investigational agent were based upon clinically achievable concentrations if the clinical Cmax of the agent was known.
# Compounds. The drugs and investigational agents: ipatasertib (NSC767898), abemaciclib(NSC768073), selumetinib (NSC741078), trametinib (758246), adavosertib (NSC754352), everolimus (NSC733504), sapanisertib (NSC764658), vemurafenib (NSC761431), venetoclax (NSC766270), copanlisib (NSC809693), apelisib (NSC765974), palbociblib (NSC758247), vemurafenib (NSC761431), dabrafenib (NSC764134), ravoxertinib (NSC781343), BMS-387032 (NSC767048), sotorasib (NSC818433), talazoparib (NSC767125) and afursertib (NSC778305), were obtained from the National Cancer Institute (NCI) Developmental Therapeutics Program Chemical Repository. The FDA-approved anticancer drug set is available from the NCI Developmental Therapeutics Program. […] The stock solutions were prepared in dimethyl sulfoxide (DMSO, Sigma-Aldrich, St. Louis, MO, cat. D2650) at 800-fold the tested concentration and stored at -70 degrees C prior to their use. All drugs and investigational agents were tested over a range starting from a high concentration at or near the clinical Cmax and decreasing in half-log increments. If the clinical Cmax for an agent had not been determined, the highest concentration tested was 10 microM.
# NCI60 Cell Culture. NCI60 cell lines were obtained from the NCI Developmental Therapeutics Program Tumor Repository. For each lot of cells, the Repository performed Applied Biosystems AmpFLSTR Identifiler testing with PCR amplification to confirm consistency with the published Identifier STR profile for each cell line. Cells were kept in continuous culture for no more than 20 passages. The optimal seeding densities for each of the cell lines at each time point assessed were determined prior to performing the concentration response studies. Briefly, the NCI60 human tumor lines were grown as monolayers in RPMI 1640 medium supplemented with 10% FBS and 2 mmol/L L-glutamine.
# An additional 9 lines were from the NCI60 cell line panel including MDA-MB-231 breast carcinoma, MDA-MB-468 breast carcinoma, MCF7 breast carcinoma, Hs578T breast carcinoma, MALME-3M melanoma, SK-MEL-2 melanoma, SK-OV-3 ovarian carcinoma, DU-145 prostate carcinoma, PC-3 prostate carcinoma, all cell lines along with major genetic alterations are listed on Table 2. Pooled donor human umbilical vein endothelial cells (HUVEC, Lonza, cat. CC-2519) and human mesenchymal stem cells (hMSC, Lonza, cat. PT-2501) were purchased from Lonza (Walkersville, MD).
# PDMR cell lines were grown in complete medium (DC medium): Dulbecco's modified Eagle's medium (DMEM)/F12 supplemented with 5% fetal bovine serum (FBS), 2 mM L-glutamine, 100 U/mL penicillin and 100 µg/ml streptomycin, 0.4 µg/ml hydrocortisone, 10 ng/ml epidermal growth factor (EGF) recombinant human protein, 24 µg/mL adenine, and 0.1 mg/mL primocin. During culture from frozen stock vials, PDMR cells were cultured in the same medium containing 10 µM Y-27632 (see Table 3). The PDCs were cultured in complete DMEM/F12 media without 10 microM Y-27632 dihydrochloride for at least two passages prior to the screen. The pooled donor HUVEC and hMSC were cultured in endothelial cell growth medium 2 (PromoCell, Heidelberg, Germany, cat. C-22011) and mesenchymal stem cell growth medium 2 (PromoCell, cat. C-28009), respectively. For all experiments, HUVEC and hMSC were used at passages </=5.
# […]
# [1] = compound alone, run of 05/18/2021
Structure (SMILES),"viability, T/C (compound 0.0316 µM)","viability, T/C (compound 0.1 µM)","viability, T/C (compound 0.316 µM)","viability, T/C (compound 1 µM)","viability, T/C (compound 3.16 µM)","viability, T/C (compound 10 µM)",IC50 (curve of compound),also measured
C=CC(=O)N1CCN(c2nc(=O)n(-c3c(C)ccnc3C(C)C)c3nc(-c4c(O)cccc4F)c(F)cc23)C(C)C1 (stereo not drawn),90.5% and 115%,103% and 119%,121% and 129%,105%,93.5% and 110%,35.1% and 37.1%,7490 nM and 8200 nM,
C=CCn1c(=O)c2cnc(Nc3ccc(N4CCN(C)CC4)cc3)nc2n1-c1cccc(C(C)(C)O)n1,80.6% and 99.8%,94.4% and 96.1%,77.9% and 78.9%,6.3% and 7.75%,3.1% and 3.7%,2.62% and 3.3%,495 nM and 505 nM,
CC(=O)c1c(C)c2cnc(Nc3ccc(N4CCNCC4)cn3)nc2n(C2CCCC2)c1=O,,,,,,,> 300 nM,"viability, T/C (compound 0.000949 µM): 93.7% and 99%; viability, T/C (compound 0.003 µM): 91.4% and 97.5%; viability, T/C (compound 0.00949 µM): 92% and 93.8%; viability, T/C (compound 0.03 µM): 88.1% and 91.8%; viability, T/C (compound 0.0949 µM): 92.4% and 81.4%; viability, T/C (compound 0.3 µM): 90.2% and 73.4%"
CC(C)(C)c1cnc(CSc2cnc(NC(=O)C3CCNCC3)s2)o1,,,,,,,83.2 nM and 123 nM,"viability, T/C (compound 0.00949 µM): 90.5% and 95.1%; viability, T/C (compound 0.03 µM): 98.2% and 96.8%; viability, T/C (compound 0.0949 µM): 44.3% and 64.7%; viability, T/C (compound 0.3 µM): 0.55% and 0.39%; viability, T/C (compound 0.949 µM): 0.44% and 0.29%; viability, T/C (compound 3 µM): 0.51% and 0.39%"
CC(C)NCC(C(=O)N1CCN(c2ncnc3c2C(C)CC3O)CC1)c1ccc(Cl)cc1 (stereo not drawn),,91.9% [middle of 13 runs],,54.4% [middle of 13 runs],35.1% [middle of 13 runs],18.4% [middle of 13 runs],,IC50 [1]: 1.25 µM [middle of 12 runs]
CC(C)n1nc(-c2ccc3oc(N)nc3c2)c2c(N)ncnc21,23.8% and 23.2%,9.32% and 10.4%,,,,,10.4 nM and 12 nM,"viability, T/C (compound 0.000316 µM): 99% and 104%; viability, T/C (compound 0.001 µM): 84.2% and 89.2%; viability, T/C (compound 0.00316 µM): 74% and 80.1%; viability, T/C (compound 0.01 µM): 53.6% and 57.9%"
CC1(C)CCC(CN2CCN(c3ccc(C(=O)NS(=O)(=O)c4ccc(NCC5CCOCC5)c([N+](=O)[O-])c4)c(Oc4cnc5[nH]ccc5c4)c3)CC2)=C(c2ccc(Cl)cc2)C1,111% and 107%,106% and 94.5%,102% and 89.2%,95.9% and 85.8%,73% and 52.9%,10% and 5.86%,4770 nM and 3520 nM,
CCCS(=O)(=O)Nc1ccc(F)c(C(=O)c2c[nH]c3ncc(-c4ccc(Cl)cc4)cc23)c1F,99.5% and 107%,99% and 91.6%,95% and 103%,100% and 109%,97.5% and 106%,66.3% and 75.8%,> 10000 nM,
CCN1CCN(Cc2ccc(Nc3ncc(F)c(-c4cc(F)c5nc(C)n(C(C)C)c5c4)n3)nc2)CC1,,102% [middle of 13 runs],,,,,,IC50 [1]: > 1000 nM
COc1c(OCCCN2CCOCC2)ccc2c3n(c(=NC(=O)c4cnc(N)nc4)nc12)CCN3,73% and 72.7%,63.9% and 66.5%,25.6% and 23.6%,4.06% and 3.22%,,,141 nM and 139 nM,"viability, T/C (compound 0.00316 µM): 89% and 95.1%; viability, T/C (compound 0.01 µM): 95% and 91.5%"
